In publication PMC8779298, “The Campylobacter jejuni Response Regulator and Cyclic-Di-GMP Binding CbrR Is a Novel Regulator of Flagellar Motility” (Microorganisms, 2021):

What was measured:
CbrR [1] = test system: T1, CbrR; conditions: labelled compound (32P); 10 mM Tris pH 8.0, 5 mM MgCl2, 100 mM NaCl; active-site mutant
T1 construct: gene CJJ81176_0671
Target sequence in this assay (A0A0H3PJ41 whole entry E334A): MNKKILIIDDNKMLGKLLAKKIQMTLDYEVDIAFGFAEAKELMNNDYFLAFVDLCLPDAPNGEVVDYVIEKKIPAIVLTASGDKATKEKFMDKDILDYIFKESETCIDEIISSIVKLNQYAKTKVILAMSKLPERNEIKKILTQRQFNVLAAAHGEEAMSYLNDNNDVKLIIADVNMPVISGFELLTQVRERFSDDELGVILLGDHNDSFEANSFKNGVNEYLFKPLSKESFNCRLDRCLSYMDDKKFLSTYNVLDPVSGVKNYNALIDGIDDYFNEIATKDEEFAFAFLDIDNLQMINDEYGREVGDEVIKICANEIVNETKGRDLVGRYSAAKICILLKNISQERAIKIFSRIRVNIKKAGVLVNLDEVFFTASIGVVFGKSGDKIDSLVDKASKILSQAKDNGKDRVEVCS

CbrR [2] = test system: T1, CbrR; conditions: labelled compound (32P); 10 mM Tris pH 8.0, 5 mM MgCl2, 100 mM NaCl; I-site mutant
Target sequence in this assay (A0A0H3PJ41 whole entry K323A/G324A/R325A/D326A): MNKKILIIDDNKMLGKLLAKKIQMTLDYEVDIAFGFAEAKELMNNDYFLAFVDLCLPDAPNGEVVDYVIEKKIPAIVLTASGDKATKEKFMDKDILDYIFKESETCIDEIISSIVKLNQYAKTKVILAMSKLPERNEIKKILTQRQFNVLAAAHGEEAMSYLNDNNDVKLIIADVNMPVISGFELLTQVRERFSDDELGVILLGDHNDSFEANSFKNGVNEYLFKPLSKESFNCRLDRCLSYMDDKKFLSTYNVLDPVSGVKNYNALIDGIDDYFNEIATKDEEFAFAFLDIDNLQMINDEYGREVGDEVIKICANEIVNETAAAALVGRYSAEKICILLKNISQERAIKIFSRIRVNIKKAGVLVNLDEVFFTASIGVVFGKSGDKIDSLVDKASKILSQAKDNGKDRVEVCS

| Compound | DRaCALA, nitrocellulose spot (CbrR [1]) | binding (CbrR [2]) |
| --- | --- | --- |
| Nc1nc2c(ncn2[C@@H]2O[C@H](COP(=O)(O)OP(=O)(O)OP(=O)(O)O)[C@@H](O)[C@H]2O)c(=O)[nH]1 [GTP] | did not affect binding of either GTP or c-di-GMP | – |
| Nc1nc2c(ncn2[C@@H]2O[C@@H]3COP(=O)(O)O[C@H]4[C@@H](O)[C@H](n5cnc6c(=O)[nH]c(N)nc65)O[C@@H]4COP(=O)(O)O[C@H]3[C@H]2O)c(=O)[nH]1 [c-di-GMP] | did not affect binding of either GTP or c-di-GMP | substitution of the I-site in the protein led to the loss of c-di-GMP binding |
